Experimental data as given in US11834431B2, “Crystals of cyclic amine derivative and pharmaceutical use thereof” (Toray Industries, Inc., priority 2016, dated 2023).
Like-named read-outs stand apart in the source and are kept apart here.

Columns and labels:
[1] = Evaluation of storage stability, Form A crystal versus amorphous matter (HPLC purity); type: physicochemical; details: for Chemical purity, After storage / Decomposition product increased by not less than 0.15% after storage / Optical purity, After storage: airtight state, listed as Form A
[2] = Evaluation of storage stability of Form A crystal, 6 months (HPLC purity, powder X-ray diffraction, TG-DTA); type: physicochemical
[3] = system: spinal nerve ligation model rats (neuropathic pain model rats); test: Analgesic effect on allodynia in spinal nerve ligation model rats (von Frey, 50% response threshold); type: in vivo, rat; details: measured 3 hours after administration, 8 days after ligation, compared to negative control group
Protocol: Analgesic effects of the crystal of compound (I) or the pharmacologically acceptable salt thereof upon neuropathic pain were evaluated using spinal nerve ligation model rats (Kim and Chung, Pain, 1992, vol. 50, p. 355). Form A crystal of compound (I) was used as a crystal of compound (I) or the pharmacologically acceptable salt thereof for evaluation.
The above model rats were prepared as follows. In experiments, 6-to 7-week-old SD male rats were used for 5 to 7 cases per group, and the lumbar skin and muscle of each rat were dissected to expose the L5 and L6 […] under inhalation anesthesia with isoflurane. After ligating the L5 and L6 spinal nerves with silk suture, the wound of each rat was sutured. Thus, a nerve ligation group was prepared. The group in which the nerve was exposed but not ligated was determined to be a sham surgery group.
Allodynia observed in spinal nerve ligation model rats was measured using a von Frey filaments according to a method described in a known publication (Chaplan et al., J. Neurosci. Methods, 1994, vol. 53, p. 55) and a 50% response threshold (g) was determined. Eight days after the ligation surgery, allodynia of the nerve ligation group was measured before oral administration of Form A crystal of compound (I). Rats with a 50% response threshold (average value of the right hind paw and the left hind paw) of 2 g to less than 6 g were considered to have developed allodynia. The rats were divided as neuropathic pain model rats into groups such that there was no significant difference in the 50% response threshold between groups. Allodynia was measured 3 hours after the oral administration of Form A crystal of compound (I), and the analgesic effect was evaluated. Pregabalin was used as a positive control.
Form A crystal of compound (I) was dissolved in water for injection (distilled water) to result in concentrations of 5, 10, and 20 mg/mL, and orally administered in a dose volume of 1 mL per kg body weight. Pregabalin was dissolved in water for injection (distilled water) to result in a concentration of 10 mg/mL and orally administered in a dose volume of 1 mL per kg of body weight. Water for injection (distilled water) was orally administered to the sham surgery group. A group in which water for injection (distilled water) was orally administered to rats in the nerve ligation group was defined as a negative control group.
The horizontal axis represents the solution to be administered in each group, namely, the nerve ligation group or sham surgery group, and the vertical axis represents the 50% response threshold (g) (mean±standard error, n=5 to 7). […]

[4] = Evaluation of solubility in Japanese Pharmacopoeia test fluids; type: physicochemical; details: thermodynamic from solid
Protocol: Form A crystal of compound (I) (100 mg) was weighed into a borosilicate glass vial, and the 1st fluid for disintegration test/1st fluid for dissolution test of the Japanese Pharmacopoeia 16th edition (pH 1.2)(1 mL) or the 2nd fluid for disintegration test of the Japanese Pharmacopoeia 16th edition (pH 6.8)(1 mL) was added in a temperature and humidity test chamber (Amefrec Co., Ltd.; NO DOORα) adjusted to 37° C., followed by stirring. Form B crystal of ethane disulfonate of compound (I) (10 mg) was weighed into a borosilicate glass vial, and the 2nd fluid for disintegration test of the Japanese Pharmacopoeia 16th edition (pH 6.8) (0.1 mL) was added in a temperature and humidity test chamber (Amefrec Co., Ltd.; NO DOORα) adjusted to 37° C., followed by stirring. After 30 minutes, the inside of each vial was visually checked, and it was confirmed that each crystal was completely dissolved.

[5] = Evaluation of hygroscopicity (equilibrium moisture measurement); type: physicochemical; details: for Weight increase: humidification with an increase in relative humidity from 5% to 65%; for Weight increase / Change in appearance: 30° C.; for Change in appearance: humidification
Protocol: Equilibrium moisture measurement was performed on Form A crystal and the amorphous matter of compound (I) under the following conditions using a fully automated symmetric vapor sorption analyzer (TA Instruments Inc.; VTI-SA+). […] The change in appearance was also observed.

[6] = 40° C., relative humidity 75%, 8 weeks
[7] = Storage test 1: 25° C., relative humidity 60%, open state
[8] = Storage test 2: 40° C., relative humidity 75%, airtight state
[9] = Storage test 3: 60° C., airtight state
[10] = any of storage tests 1 to 3, 6 months
[11] = listed as Form A crystal of compound (I)

SMILES: CN(C)C1CCN(C(=O)C[C@H](O)c2nccn2C)CC1 [Form A crystal, (S)-1-(4-(dimethylamino)piperidin-1-yl)-3-hydroxy-3-(1-methyl-1H-imidazol-2-yl)propan-1-one]
- Chemical purity, After storage [1, 6]: 99.9%
- Decomposition product increased by not less than 0.15% after storage [1, 6]: None
- Optical purity, After storage [1, 6]: 98.8 % ee
- Chemical purity, After storage ([1]; 60° C., 4 weeks): 99.8%
- Decomposition product increased by not less than 0.15% after storage ([1]; 60° C., 4 weeks): None
- Optical purity, After storage ([1]; 60° C., 4 weeks): 98.8 % ee
- Chemical purity, Initial value ([1]; before storage): 99.9%
- Optical purity, Initial value ([1]; before storage): 98.6 % ee
- Chemical purity, After 6 months [2, 7]: 99.8%
- Crystal form after 6 months [2, 7]: Form A
- Decomposition product increased by not less than 0.15% after 6 months [2, 7]: None
- Optical purity, After 6 months [2, 7]: 99.0 % ee
- Chemical purity, After 6 months [2, 8]: 99.8%
- Crystal form after 6 months [2, 8]: Form A
- Decomposition product increased by not less than 0.15% after 6 months [2, 8]: None
- Optical purity, After 6 months [2, 8]: 99.0 % ee
- Chemical purity, After 6 months [2, 9]: 99.8%
- Crystal form after 6 months [2, 9]: Form A
- Decomposition product increased by not less than 0.15% after 6 months [2, 9]: None
- Optical purity, After 6 months [2, 9]: 99.0 % ee
- change in the crystal form on storage [2, 10]: no change was observed
- change of purity on storage [2, 10]: did not change
- Chemical purity, Initial value ([2]; before storage): 99.8%
- Optical purity, Initial value ([2]; before storage): 98.8 % ee
- improvement of allodynia (50% response threshold) ([3]; oral 5 mg/kg): significant improvement
- improvement of allodynia (50% response threshold) ([3]; oral 10 mg/kg): significant improvement
- improvement of allodynia (50% response threshold) ([3]; oral 20 mg/kg): significant improvement
- solubility at 30 min ([4]; Japanese Pharmacopoeia test fluids, text summary of Table 5, 37° C., read-out: solubilities): ≥ 100 mg/mL
- solubility at 30 min ([4]; simulated gastric fluid, 1st fluid for disintegration test/1st fluid for dissolution test of the Japanese Pharmacopoeia 16th edition (pH 1.2), 37° C., 30 minutes, read-out: Solubility (37° C.)): > 100 mg/mL
- Weight increase [5]: 0.1%
- Weight increase [5, 11]: did not experience an increase in weight
- Change in appearance [5]: Maintenance of white powder
- Change in appearance [5, 11]: did not deliquesce
- change in the crystal form after the hygroscopicity evaluation test ([5]; powder X-ray diffraction after humidification): did not experience a change in the crystal form
